How the values were obtained:
[1] = test system: APP and C-terminal fragments in the brains of 3xTg-AD mice; assay: Western blot of brain extracts with antibody CT20, 2-month treatment (Examples 4 and 5); assay type: in vivo, mouse; settings: antibody CT20, brains of 3xTg-AD mice, 5 mg/kg/day for 2 months
Method: (§1) 3xTg-AD mice of approximately one year of age were treated for 2 months with ST101. An average dose of 5 mg/kg/day was administered in drinking water (calculated dose, based on mean water consumption). Behavioral effects were tested by assessing performance on the Morris Water Maze. Biochemical effects were examined by measuring brain content of Aβ and APP by ELISA and Western Blot.
To attempt to determine at what part in the Aβ processing/release pathway ST101 may be active, a series of Western blot analyses of brain extracts from the same mice were conducted. These Westerns blots examined intact APP as well as products of its post-translational processing and subsequent degradation.
FIG. 4 is a Western blot that depicts APP C-terminal fragments detected by antibody CT20 in the brains of ST101-treated (S) 3xTg-AD mice, relative to untreated (C) 3xTg mice-AD.
FIG. 5 is a Western blot that depicts APP and degradation fragments detected by antibody CT20 in the brains of ST101-treated (S) 3xTg-AD mice, relative to untreated (C) 3xTg-AD mice. “CT20” stands for full length APP species, and “Actin” stands for anti-beta-actin antibody as a protein loading control.

[2] = test system: APP C-terminal fragments in the brains of 3xTg-AD mice; assay: Western blot of brains with antibody CT20, 10-month treatment (Example 7); assay type: in vivo, mouse; settings: antibody CT20, 3xTg-AD mice, 5 or 1 or 0.1 mg/kg/day for 10 months; in some samples
Method: 3xTg-AD mice of approximately 3 months of age were treated for 10 months with ST101. An average dose of 5 or 1 or 0.1 mg/kg/day was administered in drinking water (calculated dose, based on mean water consumption).
FIGS. 7A-C are Western blots that depict APP C-terminal fragments detected by antibody CT20 in the brains of ST101-treated (S) 3xTg-AD mice, relative to untreated (C) 3xTg-AD mice.

acetylcholine (ACh) = assay: Nicotine-stimulated release of acetylcholine
3xTg-AD mice = assay: Morris water maze in 3xTg-AD mice; assay type: in vivo, mouse
Method: as §1
Behavioral Effects: Performance of 3xTg-AD Mice in the Morris Water Maze (MWM), adapted from Roozendaal et al., Proc. Natl. Acad. Sci. U.S.A. 100: 1328-1333 (2003).
The MWM tests both spatial memory (i.e. hippocampus dependent) and cued learning (i.e. non-hippocampal) in rodents. The maze is a circular tank filled with opaque water. Mice are placed in the water and must swim to find and escape onto a platform submerged 1.5 cm beneath the surface of the water. The time (in seconds) required to find the platform is recorded. Animals rely on visual cues in the room containing the tank in order to find the platform on successive challenges. Training was conducted daily for seven consecutive days.
Retention of training was assessed twice, 24 and 72 hours after the final training trial. Animals were subjected to a 60-second free swim in the tank with the platform removed. Parameters measured included (1) latency: time required to reach the former platform location and (2) crosses: the number of times the animal swam across the former platform location.

[3] = test system: rodent models of learning and memory; settings: cited from earlier work
N2a cells = assay: Aβ production by N2a cultured cells, ELISA of tissue culture medium; assay type: cell-based, murine; settings: 24 hours treatment, vs control
Method: N2a is a murine neuroblastoma cell line that is known to produce amyloid peptides Aβ1-40 and Aβ1-42 in amounts measurable by ELISA assays. These forms of Aβ have been correlated with the pathology in AD brain and Aβ1-42 in particular is postulated to have the ability to block α7 nicotinic receptors and to produce direct neurotoxic effects. N2a cells were treated for 24 hours with ST101 added to the tissue culture medium. Tissue culture medium was collected and analyzed by ELISA for the presence of Aβ.
FIGS. 1A and 1B are bar graphs that depict the effect of the compound ST101 on Aβ production by N2a cells. FIG. 1A is a bar graph that depicts the Aβ concentration in the cell culture medium as a function of ST101 concentration compared to control. FIG. 1B a bar graph that depicts the ratio of Aβ1-42 to Aβ1-40 as a function of ST101 concentration compared to control.

[4] = test system: APP C-terminal fragments in the brains of 3xTg-AD mice; assay: Western blot of brains with antibody 1565-1, 2.5-month treatment (Example 8); assay type: in vivo, mouse; settings: antibody 1565-1, 3xTg-AD mice, 5 mg/kg/day for 2.5 months
Method: 3xTg-AD mice of approximately 12 months of age were treated for 2.5 months with ST101. An average dose of 5 mg/kg/day was administered in drinking water (calculated dose, based on mean water consumption).
FIG. 8 is a Western blot that depicts C-terminal fragments detected by antibody 1565-1 (Epitomics Inc.) in the brains of ST101-treated (S) 3xTg-AD mice, relative to untreated (C) 3xTg mice-AD.

[5] = test system: extracellular ACh and dopamine; assay: Extracellular ACh and dopamine concentrations in cerebral cortex and hippocampus; assay type: in vivo
[6] = test system: Senescence Accelerated Mouse 8 (SAMP8); settings: cited from earlier work
[7] = 5 mg/kg/day for 2 months, at both 24 and 72 hours after training

O=C1N=C2C=CC=CN2C12Cc1ccccc1C2 [ST101, spiro(imidazo[1,2-a]pyridin-2(3H)-one-3,2′-indan)]
C83 C-terminal APP fragment ([1]; vs untreated): substantial decrease
C99 C-terminal APP fragment ([1]; vs untreated): substantial decrease
major APP degradation intermediate (~50 kDa) ([1]; vs untreated): disappearance or significant reduction
novel, longer C-terminal fragment of about 17 kDa ([1]; vs untreated): appearance
full-length APP species (band shifts) ([1]; some full-length species): slightly lowered molecular weight
major APP degradation intermediate (~50 kDa) [2]: disappearance or significant reduction
novel, longer C-terminal fragment of about 17 kDa [2]: appearance
nicotine-stimulated release of acetylcholine (ACh) (acetylcholine (ACh)): potentiates
crosses during retention testing (3xTg-AD mice; [7]): increases in crosses
latency during retention testing (3xTg-AD mice; [7]): reductions in latency
latency on successive days of the training (3xTg-AD mice; 5 mg/kg/day in drinking water for 2 months, vs controls): greater reductions in latency
memory deficits induced by chemical amnesic agents ([3]; methamphetamine, MK-801, scopolamine): attenuates
age-impaired memory ([3]; rodent models): significantly improves
Aβ1-40 in cell culture medium (N2a cells): without major effects
Aβ1-42 in cell culture medium (N2a cells): significantly reduced
longer C-terminal fragment of about 17 kDa [4]: not observed
APP C99 fragment ([4]; vs untreated): disappearance or significant reduction
extracellular ACh concentrations ([5]; cerebral cortex): increases
extracellular concentrations of ACh ([5]; hippocampus): increases
extracellular concentrations of dopamine ([5]; hippocampus): increases
accumulation of Aβ-like deposits ([6]; brain tissue): decreased
learning and memory functions [6]: improvement
